Test systems include HOP-92; CCRF-CEM; UACC-62; SF-295; HT-29; SNB-19; SN12C; K562; U-251; SNB-75; SNB-78; XF498; LXFL 529; 786-0.
Holding throughout (test): NCI anticancer screen, dose series, 48 h

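Briefly, cells in 96-well plates were exposed to five compound concentrations for 48 h, and endpoints were estimated by linear interpolation. The concentration for 50% growth inhibition is given as GI50.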 Active and inactive are the calls of the source. No stated cut-off is given here; in the data, active = GI50 up to about 1.1 µM and inactive = higher.

The values that follow come from ChEMBL document CHEMBL1201862, “PubChem BioAssay data set” (2004).

Take `COc1nc(O)c(N)c(NC2OC(CO)C(O)C(O)C2O)n1` (configuration not stated): the GI50 in the assay with HOP-92 was > 100 µM (inactive); with CCRF-CEM it was > 57.8 µM (inactive); with UACC-62, > 100 µM (inactive); in the assay with SF-295 it was > 100 µM (inactive); with HT-29, > 100 µM (inactive); in the assay with SNB-19, > 100 µM (inactive). Moreover, the GI50 in the assay on SN12C is > 100 µM (inactive); in the assay with K562, > 90.8 µM (inactive); in the assay with U-251, > 100 µM (inactive); with SNB-75, > 100 µM (inactive); in the assay on SNB-78, > 100 µM (inactive); in the assay on XF498, > 100 µM (inactive).
Consider `COc1ccccc1C1C(C(=O)O)=C(CO)Oc2cc3c(cc21)OCO3` (configuration not stated), for which the GI50 in the assay with HOP-92, in the assay on CCRF-CEM, in the assay on UACC-62, in the assay with SF-295, with HT-29 and in the assay with SNB-19 was > 100 µM (inactive) throughout. The GI50 in the assay on SN12C, in the assay on K562, in the assay with U-251, in the assay with SNB-75, in the assay on SNB-78 and with LXFL 529 was > 100 µM (inactive) each time.
For `CC1(C)c2ccccc2C(C)(C)C(C(=O)Nc2ccccc2)C1C(=O)O` (configuration not stated), the GI50 in the assay on HOP-92, in the assay with CCRF-CEM, in the assay on UACC-62, in the assay on SF-295, in the assay with HT-29 and in the assay on SNB-19 was > 100 µM (inactive) each time. Also, the GI50 in the assay on SN12C, in the assay with K562, in the assay on U-251, with SNB-75, in the assay with SNB-78 and with 786-0 was > 100 µM (inactive) each time. The GI50 in the assay on LXFL 529 was > 100 µM (inactive).
Consider `CCCCC1=CSC(c2ccccc2)=C(c2ccccc2)S1`, for which the GI50 is 11.7 µM (inactive) in the assay with HOP-92; 21.6 µM (inactive) in the assay with CCRF-CEM; 40.5 µM (inactive) in the assay on UACC-62; 36.5 µM (inactive) in the assay on SF-295; 33.6 µM (inactive) with HT-29; 43.3 µM (inactive) in the assay with SNB-19. Besides, the GI50 in the assay with SN12C was 97.5 µM (inactive); in the assay on K562, 8.83 µM (inactive); with U-251, 30.9 µM (inactive); in the assay on SNB-75 it was 57 µM (inactive); with SNB-78, > 100 µM (inactive); in the assay on 786-0, 87.5 µM (inactive). Further, the GI50 in the assay with LXFL 529 was 8.28 µM (inactive).
Take `CC1Cc2c(N)nc(N3CCOCC3)nc2NC1=O` (configuration not stated): the GI50 in the assay on CCRF-CEM, with UACC-62, in the assay with SF-295, with HT-29, with SNB-19 and in the assay on SN12C was > 100 µM (inactive) in each case. Besides, the GI50 in the assay with K562 was > 100 µM (inactive); in the assay on U-251 it was > 100 µM (inactive); with SNB-75 it was 5.53 µM (inactive); in the assay on 786-0 it was > 100 µM (inactive); in the assay with XF498, 0.463 µM (active).
With `NC(=O)OCC1=C(COC(N)=O)C(=O)c2c(O)ccc(O)c2C1=O`, the GI50 with HOP-92 is > 100 µM (inactive); in the assay with CCRF-CEM, 44.7 µM (inactive); with UACC-62 it was 27.3 µM (inactive); in the assay with SF-295 it was > 100 µM (inactive); in the assay with HT-29, > 100 µM (inactive); with SN12C, > 100 µM (inactive). Moreover, the GI50 is 61.9 µM (inactive) in the assay with K562; > 100 µM (inactive) in the assay on U-251; > 100 µM (inactive) in the assay on SNB-75; > 100 µM (inactive) in the assay on SNB-78; > 100 µM (inactive) with LXFL 529.
